Assay results published in ChEMBL document CHEMBL1208783, “An orally bioavailable positive allosteric modulator of the mGlu4 receptor with efficacy in an animal model of motor dysfunction” (Bioorg Med Chem Lett, 2010).

Experiments:
[1] = target: T1, Metabotropic glutamate receptor 4 (Homo sapiens, UniProt Q14833); experiment: Positive allosteric modulation of human mGluR4 expressed in CHO-K1 cells assessed as decrease in forskolin-induced intracellular cAMP accumulation after 1 hr by fluorescence assay; format: functional, cell-based
T1 sequence (Q14833 whole entry): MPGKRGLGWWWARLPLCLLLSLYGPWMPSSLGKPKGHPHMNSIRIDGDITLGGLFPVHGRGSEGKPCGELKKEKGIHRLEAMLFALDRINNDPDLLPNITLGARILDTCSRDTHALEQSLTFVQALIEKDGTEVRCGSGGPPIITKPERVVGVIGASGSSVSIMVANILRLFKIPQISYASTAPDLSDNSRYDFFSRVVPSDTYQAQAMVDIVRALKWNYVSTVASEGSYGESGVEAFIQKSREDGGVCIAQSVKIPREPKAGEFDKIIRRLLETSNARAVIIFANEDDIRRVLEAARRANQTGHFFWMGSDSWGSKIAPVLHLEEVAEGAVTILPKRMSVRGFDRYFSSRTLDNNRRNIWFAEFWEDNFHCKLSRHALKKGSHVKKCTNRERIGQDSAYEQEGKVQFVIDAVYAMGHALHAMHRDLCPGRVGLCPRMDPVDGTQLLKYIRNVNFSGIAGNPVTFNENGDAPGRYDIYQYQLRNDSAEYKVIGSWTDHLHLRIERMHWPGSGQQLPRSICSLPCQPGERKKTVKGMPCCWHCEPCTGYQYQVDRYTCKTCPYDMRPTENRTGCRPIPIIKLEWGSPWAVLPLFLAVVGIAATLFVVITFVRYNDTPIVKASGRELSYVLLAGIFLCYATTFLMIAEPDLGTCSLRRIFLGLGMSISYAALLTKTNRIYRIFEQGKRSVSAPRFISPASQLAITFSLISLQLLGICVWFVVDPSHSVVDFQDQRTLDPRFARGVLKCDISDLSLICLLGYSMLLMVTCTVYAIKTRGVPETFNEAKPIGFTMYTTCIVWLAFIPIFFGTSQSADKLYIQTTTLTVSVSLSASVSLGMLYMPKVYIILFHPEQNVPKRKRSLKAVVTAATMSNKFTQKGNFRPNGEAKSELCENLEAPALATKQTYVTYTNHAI

[2] = target: T1, Metabotropic glutamate receptor 4; experiment: Positive allosteric modulation of human mGluR4 expressed in CHO-K1 cells assessed as decrease in forskolin-induced intracellular cAMP accumulation after 1 hr by fluorescence assay relative to (-)-PHCC; format: functional, cell-based
[3] = target: T2, Metabotropic glutamate receptor 5 (Homo sapiens, UniProt P41594); experiment: Negative allosteric modulation of human mGluR5 expressed in CHO-K1 cells; format: cell-based
T2 sequence (P41594 whole entry): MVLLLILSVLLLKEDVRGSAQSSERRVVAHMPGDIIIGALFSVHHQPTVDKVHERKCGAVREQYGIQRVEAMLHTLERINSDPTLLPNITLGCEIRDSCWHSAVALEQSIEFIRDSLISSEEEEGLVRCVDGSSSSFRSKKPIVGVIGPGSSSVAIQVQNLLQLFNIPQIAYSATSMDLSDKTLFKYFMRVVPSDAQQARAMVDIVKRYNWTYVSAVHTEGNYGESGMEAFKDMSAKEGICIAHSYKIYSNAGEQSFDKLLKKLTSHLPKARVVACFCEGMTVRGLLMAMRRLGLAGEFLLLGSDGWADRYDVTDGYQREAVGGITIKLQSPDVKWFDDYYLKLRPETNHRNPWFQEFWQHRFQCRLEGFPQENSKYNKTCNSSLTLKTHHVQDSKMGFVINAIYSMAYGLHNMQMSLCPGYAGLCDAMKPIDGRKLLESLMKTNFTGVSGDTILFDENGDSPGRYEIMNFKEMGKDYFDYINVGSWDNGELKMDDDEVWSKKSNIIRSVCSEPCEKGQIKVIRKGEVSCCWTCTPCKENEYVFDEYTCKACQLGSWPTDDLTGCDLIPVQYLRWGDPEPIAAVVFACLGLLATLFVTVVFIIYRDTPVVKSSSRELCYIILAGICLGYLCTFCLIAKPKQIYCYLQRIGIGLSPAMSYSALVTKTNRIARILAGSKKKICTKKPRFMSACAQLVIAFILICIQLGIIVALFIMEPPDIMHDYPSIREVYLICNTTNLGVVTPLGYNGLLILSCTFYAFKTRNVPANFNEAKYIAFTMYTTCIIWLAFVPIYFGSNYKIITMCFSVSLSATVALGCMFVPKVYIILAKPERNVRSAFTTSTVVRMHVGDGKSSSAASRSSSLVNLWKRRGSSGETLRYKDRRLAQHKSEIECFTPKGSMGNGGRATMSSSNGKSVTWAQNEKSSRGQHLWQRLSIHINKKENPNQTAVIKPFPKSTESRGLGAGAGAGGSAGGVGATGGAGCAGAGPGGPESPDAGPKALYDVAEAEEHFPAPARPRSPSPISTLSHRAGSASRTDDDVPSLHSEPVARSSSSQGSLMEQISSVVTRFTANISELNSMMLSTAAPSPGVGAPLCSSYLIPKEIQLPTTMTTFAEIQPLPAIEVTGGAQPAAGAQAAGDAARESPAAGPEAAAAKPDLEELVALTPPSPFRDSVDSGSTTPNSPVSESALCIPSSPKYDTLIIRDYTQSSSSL

Rattus norvegicus [4] = experiment: Inhibition of haloperidol-induced catalepsy in po dosed rat administered 30 mins before haloperidol challenge; format: functional, organism-based
[5] = Permeability from basolateral to apical side of human Caco-2 cells; format: ADME, cell-based; settings: read-out: permeability
Cytochrome P450 2D6 = Cytochrome P450 2D6 (Homo sapiens, UniProt P10635); experiment: Inhibition of CYP2D6 up to 50 uM; format: ADME
Chain of Cytochrome P450 2D6 (P10635 whole entry): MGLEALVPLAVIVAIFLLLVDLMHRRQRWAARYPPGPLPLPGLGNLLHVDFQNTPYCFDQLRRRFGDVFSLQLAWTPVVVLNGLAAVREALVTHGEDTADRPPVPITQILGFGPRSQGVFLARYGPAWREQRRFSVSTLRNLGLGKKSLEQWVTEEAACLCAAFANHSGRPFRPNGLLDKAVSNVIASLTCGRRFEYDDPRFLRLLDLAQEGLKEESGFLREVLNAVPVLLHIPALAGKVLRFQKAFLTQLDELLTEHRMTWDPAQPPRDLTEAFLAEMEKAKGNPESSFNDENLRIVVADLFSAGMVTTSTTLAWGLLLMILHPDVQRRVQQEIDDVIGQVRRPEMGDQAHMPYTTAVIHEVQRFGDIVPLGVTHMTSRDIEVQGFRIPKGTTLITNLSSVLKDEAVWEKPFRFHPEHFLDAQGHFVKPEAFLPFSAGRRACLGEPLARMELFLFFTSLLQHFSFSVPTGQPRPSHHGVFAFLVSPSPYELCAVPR

[6] = target: T1, Metabotropic glutamate receptor 4; experiment: Agonist activity at human mGluR4 expressed in CHO-K1 cells; format: functional, cell-based
[7] = Drug level in rat plasma at 30 mg/kg, po measured at 30 mins post dose; format: ADME, organism-based; design: dose 30 mg/kg, route oral; settings: read-out: Drug uptake
[8] = Clearance in rat at 2 mg/kg, iv; format: ADME, organism-based; design: dose 2 mg/kg, route intravenous; settings: in vivo
[9] = Drug level in rat brain at 30 mg/kg, po measured at 30 mins post dose; format: ADME, organism-based; design: dose 30 mg/kg, route oral; settings: read-out: Drug uptake
Cytochrome P450 3A4 = Cytochrome P450 3A4 (Homo sapiens, UniProt P08684); experiment: Inhibition of CYP3A4 up to 50 uM; format: ADME
Chain of Cytochrome P450 3A4 (P08684 whole entry): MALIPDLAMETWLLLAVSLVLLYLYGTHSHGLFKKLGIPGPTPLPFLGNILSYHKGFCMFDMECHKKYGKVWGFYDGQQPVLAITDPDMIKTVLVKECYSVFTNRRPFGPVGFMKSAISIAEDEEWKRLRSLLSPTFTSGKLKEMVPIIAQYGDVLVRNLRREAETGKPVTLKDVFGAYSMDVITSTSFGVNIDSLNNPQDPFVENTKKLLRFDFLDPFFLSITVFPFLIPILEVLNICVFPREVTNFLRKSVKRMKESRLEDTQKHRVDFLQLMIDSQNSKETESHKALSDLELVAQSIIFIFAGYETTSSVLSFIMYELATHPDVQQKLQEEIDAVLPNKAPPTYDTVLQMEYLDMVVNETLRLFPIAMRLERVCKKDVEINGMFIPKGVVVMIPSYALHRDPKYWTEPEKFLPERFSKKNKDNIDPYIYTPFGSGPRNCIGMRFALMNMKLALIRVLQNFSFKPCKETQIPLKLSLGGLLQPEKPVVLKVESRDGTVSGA

[10] = target: T2, Metabotropic glutamate receptor 5; experiment: Positive allosteric modulation of human mGluR5 expressed in CHO-K1 cells; format: cell-based
[11] = Volume of distribution in rat at 2 mg/kg, iv; format: ADME, organism-based; design: dose 2 mg/kg, route intravenous; settings: in vivo
[12] = Metabolic stability in human microsomes; format: ADME, Microsome
[13] = target: T3, Alpha-2A adrenergic receptor (Homo sapiens) (UniProt P08913); experiment: Activity at adrenergic alpha 2A receptor at 10 uM
T3 sequence (whole entry): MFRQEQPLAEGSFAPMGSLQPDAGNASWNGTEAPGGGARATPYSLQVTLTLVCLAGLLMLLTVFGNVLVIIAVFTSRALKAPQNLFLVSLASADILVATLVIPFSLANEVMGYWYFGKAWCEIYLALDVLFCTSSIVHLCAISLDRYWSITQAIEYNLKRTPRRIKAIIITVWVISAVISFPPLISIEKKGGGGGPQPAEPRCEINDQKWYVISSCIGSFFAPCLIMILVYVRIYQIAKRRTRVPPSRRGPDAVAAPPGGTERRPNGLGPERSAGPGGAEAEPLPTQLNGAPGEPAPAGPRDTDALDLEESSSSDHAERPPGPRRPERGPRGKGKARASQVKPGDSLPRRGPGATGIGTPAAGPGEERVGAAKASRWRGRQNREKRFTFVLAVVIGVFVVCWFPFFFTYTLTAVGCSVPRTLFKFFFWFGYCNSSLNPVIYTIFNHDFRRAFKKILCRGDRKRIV

[14] = target: Metabotropic glutamate receptor 5 (Rattus norvegicus, UniProt P31424); experiment: Negative allosteric modulation of rat mGluR5 expressed in CHO-K1 cells; format: cell-based
[15] = Metabolic stability in rat microsomes; format: ADME, Microsome
[16] = target: Adenosine receptor A2a (Homo sapiens) (UniProt P29274); experiment: Activity at adenosine A2A receptor at 10 uM
Chain of Adenosine receptor A2a (Homo sapiens) (P29274 whole entry): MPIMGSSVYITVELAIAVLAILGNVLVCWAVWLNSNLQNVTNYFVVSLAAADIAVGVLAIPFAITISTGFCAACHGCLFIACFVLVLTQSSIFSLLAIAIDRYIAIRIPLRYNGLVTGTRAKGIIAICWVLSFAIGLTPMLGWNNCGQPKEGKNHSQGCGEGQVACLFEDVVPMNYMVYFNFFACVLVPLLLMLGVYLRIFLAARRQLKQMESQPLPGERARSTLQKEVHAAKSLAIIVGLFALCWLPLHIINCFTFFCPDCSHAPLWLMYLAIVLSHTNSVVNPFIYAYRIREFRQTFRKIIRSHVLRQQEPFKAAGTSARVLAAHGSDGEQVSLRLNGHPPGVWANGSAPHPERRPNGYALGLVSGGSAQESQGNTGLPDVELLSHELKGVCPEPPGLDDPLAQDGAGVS

[17] = Ratio of drug level in brain to plasma in rat at 30 mg/kg, po measured at 30 mins post dose; format: ADME, organism-based; design: dose 30 mg/kg, route oral; settings: read-out: BPR
Rattus norvegicus [18] = organism: Rattus norvegicus; experiment: Hepatic blood flow in rat; format: ADME, organism-based, Liver
[19] = Drug level in rat CSF at 30 mg/kg, po measured at 30 mins post dose; format: ADME, organism-based, Cerebrospinal fluid; design: dose 30 mg/kg, route oral; settings: read-out: Drug uptake
Cytochrome P450 2C19 = Cytochrome P450 2C19 (Homo sapiens, UniProt P33261); experiment: Inhibition of CYP2C19 up to 50 uM; format: ADME
Chain of Cytochrome P450 2C19 (P33261 whole entry): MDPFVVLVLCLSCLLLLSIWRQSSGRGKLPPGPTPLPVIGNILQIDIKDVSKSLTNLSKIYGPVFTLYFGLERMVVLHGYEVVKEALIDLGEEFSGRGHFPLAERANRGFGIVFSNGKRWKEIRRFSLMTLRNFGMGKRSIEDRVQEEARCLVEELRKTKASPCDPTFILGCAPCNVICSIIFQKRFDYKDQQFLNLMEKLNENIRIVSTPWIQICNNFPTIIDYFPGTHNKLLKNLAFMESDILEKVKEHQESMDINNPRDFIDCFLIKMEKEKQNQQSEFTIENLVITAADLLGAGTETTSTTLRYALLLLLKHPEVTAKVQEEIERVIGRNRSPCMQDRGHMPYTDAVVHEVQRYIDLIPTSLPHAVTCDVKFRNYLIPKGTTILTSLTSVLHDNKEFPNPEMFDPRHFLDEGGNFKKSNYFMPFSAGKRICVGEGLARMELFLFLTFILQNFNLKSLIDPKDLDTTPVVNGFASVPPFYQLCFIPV

[20] = target: Metabotropic glutamate receptor 4 (Rattus norvegicus, UniProt P31423); experiment: Positive allosteric modulation of rat mGluR4 expressed in CHO-K1 cells; format: cell-based
[21] = Permeability from apical to basolateral side of human Caco-2 cells; format: ADME, cell-based; settings: read-out: permeability
[22] = Plasma protein binding in rat; format: ADME, cell-free; settings: read-out: PPB (converted)
Homo sapiens = organism: Homo sapiens; experiment: Hepatic blood flow in human; format: ADME, organism-based, Liver
[23] = Oral bioavailability in rat at 30 mg/kg, po after 30 mins; format: ADME, organism-based; settings: in vivo
[24] = Mean residence time in rat at 2 mg/kg, iv; format: ADME, organism-based; design: dose 2 mg/kg, route intravenous; settings: in vivo, read-out: Time
[25] = target: T2, Metabotropic glutamate receptor 5; experiment: Agonist activity at human mGluR5 expressed in CHO-K1 cells in absence of glutamate; format: functional, cell-based
[26] = target: T4, 5-hydroxytryptamine receptor 1A (Homo sapiens) (UniProt P08908); experiment: Activity at 5HT1A receptor at 10 uM
T4 sequence (whole entry): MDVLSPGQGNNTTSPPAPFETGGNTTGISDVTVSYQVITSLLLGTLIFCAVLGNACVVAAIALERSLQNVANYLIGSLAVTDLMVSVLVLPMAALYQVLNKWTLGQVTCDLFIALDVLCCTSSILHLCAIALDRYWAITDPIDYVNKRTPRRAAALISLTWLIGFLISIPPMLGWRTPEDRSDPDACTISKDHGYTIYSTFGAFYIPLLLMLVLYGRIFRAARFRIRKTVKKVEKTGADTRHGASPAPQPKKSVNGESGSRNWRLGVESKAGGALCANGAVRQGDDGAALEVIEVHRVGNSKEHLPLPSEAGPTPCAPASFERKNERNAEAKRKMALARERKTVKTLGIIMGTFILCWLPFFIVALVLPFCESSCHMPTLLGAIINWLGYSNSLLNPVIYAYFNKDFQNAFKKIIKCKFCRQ

Cytochrome P450 2C9 = Cytochrome P450 2C9 (Homo sapiens, UniProt P11712); experiment: Inhibition of CYP2C9 up to 50 uM; format: ADME
Chain of Cytochrome P450 2C9 (P11712 whole entry): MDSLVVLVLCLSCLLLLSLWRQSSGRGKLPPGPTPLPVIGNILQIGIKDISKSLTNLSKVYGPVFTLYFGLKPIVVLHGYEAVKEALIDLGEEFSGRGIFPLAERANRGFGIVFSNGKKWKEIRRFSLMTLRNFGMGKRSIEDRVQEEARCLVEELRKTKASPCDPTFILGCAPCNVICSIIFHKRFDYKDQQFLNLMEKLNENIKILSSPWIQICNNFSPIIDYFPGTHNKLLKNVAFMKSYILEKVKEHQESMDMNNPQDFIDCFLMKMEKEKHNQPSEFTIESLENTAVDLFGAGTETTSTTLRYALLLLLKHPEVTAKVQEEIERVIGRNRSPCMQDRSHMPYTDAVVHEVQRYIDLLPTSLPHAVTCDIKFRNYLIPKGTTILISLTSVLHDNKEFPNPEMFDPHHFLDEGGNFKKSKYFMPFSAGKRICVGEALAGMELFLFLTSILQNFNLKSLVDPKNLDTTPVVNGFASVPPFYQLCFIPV

Structure (SMILES): Nc1nccc(/C=C/c2cccc(F)c2)n1
- EC50 [1]: 4.5 µM
- Emax [2]: 99%

Structure (SMILES): CS(=O)(=O)Nc1nccc(/C=C/c2ccccc2)n1
- EC50 [1]: > 30 µM

Structure (SMILES): Cc1nccc(/C=C/c2ccccc2)n1
- EC50 [1]: 6.9 µM
- Emax [2]: 67%

Structure (SMILES): Nc1cc(/C=C/c2ccccc2)nc(N)n1
- EC50 [1]: > 30 µM

Structure (SMILES): Nc1ncc(Br)c(/C=C/c2ccccc2)n1
- EC50 [1]: 1.3 µM
- Emax [2]: 94%

Structure (SMILES): Sc1nccc(/C=C/c2ccccc2)n1
- EC50 [1]: 7.8 µM
- Emax [2]: 115%

Structure (SMILES): C(=C\c1ccnc(-c2ccccc2)n1)/c1ccccc1
- EC50 [1]: > 30 µM

Structure (SMILES): Cc1cnc(N)nc1/C=C/c1ccccc1
- EC50 [1]: 0.2 µM
- Emax [2]: 94%

Structure (SMILES): Nc1ncc(Cl)c(/C=C/c2ccccc2)n1
- EC50 [1]: 1.6 µM
- Emax [2]: 102%

Structure (SMILES): N#Cc1ccc(/C=C/c2ccnc(N)n2)cc1
- EC50 [1]: > 30 µM

Structure (SMILES): Nc1nccc(-c2cc3ccccc3s2)n1
- EC50 [1]: > 30 µM

Structure (SMILES): Cc1nc(N)nc(/C=C/c2ccccc2)c1C
- EC50 [1]: 1.6 µM
- Emax [2]: 88%

Structure (SMILES): Cc1ccc(/C=C/c2ccnc(N)n2)cc1
- EC50 [1]: > 30 µM

Structure (SMILES): Nc1nccc(-c2cc3ccccc3o2)n1
- EC50 [1]: 4.9 µM
- Emax [2]: 58%

Structure (SMILES): Nc1ncc([C@@H]2C[C@H]2c2ccccc2)cn1
- EC50 [1]: > 30 µM

Structure (SMILES): Nc1nccc(C#Cc2ccccc2)n1
- EC50 [1]: 20 µM
- Emax [2]: 86%

Structure (SMILES): CN(C)c1nccc(/C=C/c2ccccc2)n1
- EC50 [1]: > 30 µM

Structure (SMILES): Cc1cc(/C=C/c2ccccc2)nc(N)n1
- EC50 [1]: 0.8 µM
- Emax [2]: 99%

Structure (SMILES): COc1cc(/C=C/c2ccccc2)nc(N)n1
- EC50 [1]: 2 µM
- Emax [2]: 106%

Structure (SMILES): Cc1ccccc1/C=C/c1ccnc(N)n1
- EC50 [1]: > 30 µM

Structure (SMILES): Nc1nccc(/C=C/c2cccnc2)n1
- EC50 [1]: 16.4 µM
- Emax [2]: 55%

Structure (SMILES): Nc1nccc(/C=C/c2ccccn2)n1
- EC50 [1]: 11.7 µM
- Emax [2]: 92%

Structure (SMILES): Nc1nccc(/C=C/c2ccncc2)n1
- EC50 [1]: > 30 µM

Structure (SMILES): Nc1nccc(/C=C/c2ccco2)n1
- EC50 [1]: 9.4 µM
- Emax [2]: 94%

Structure (SMILES): Nc1nccc(CCc2ccccc2)n1
- EC50 [1]: > 30 µM

Structure (SMILES): Nc1cccc(/C=C/c2ccccc2)n1
- EC50 [1]: 5.8 µM
- Emax [2]: 92%

Structure (SMILES): Nc1nccc(/C=C/c2cccs2)n1
- EC50 [1]: 4.1 µM
- Emax [2]: 98%

Structure (SMILES): Nc1cncc(/C=C/c2ccccc2)n1
- EC50 [1]: 15.8 µM
- Emax [2]: 72%

Structure (SMILES): Nc1nccc(/C=C/c2ccc(F)cc2)n1
- EC50 [1]: 4.5 µM
- Emax [2]: 106%

Structure (SMILES): Nc1nc(/C=C/c2ccccc2)cc(C(F)(F)F)n1
- EC50 [1]: 0.6 µM
- Emax [2]: 95%

Structure (SMILES): Nc1nccc(-c2ccc3ccccc3c2)n1
- EC50 [1]: > 30 µM

Structure (SMILES): Nc1nccc(/C=C/c2ccccc2)n1
- IC50 [3]: > 30 µM
- Activity (Rattus norvegicus [4]): Dose-dependent effect
- inhibition (Rattus norvegicus [4]): Dose-dependent effect
- Papp B→A [5]: 19.6 ×10⁻⁶ cm/s
- inhibition (INH) (Cytochrome P450 2D6): Not Active
- EC50 [6]: > 30 µM
- concentration at 0.5 h [7]: 11.6 µM
- clearance [8]: 75 mL/min/kg
- concentration at 0.5 h [9]: 33.8 µM
- inhibition (INH) (Cytochrome P450 3A4): Not Active
- EC50 [10]: > 10 µM
- Vd [11]: 2.7 L/kg
- EC50 [1]: 1 µM
- Stability [12]: 62%
- Activity [13]: > 50%
- IC50 [14]: > 10 µM
- Stability [15]: 62%
- Activity [16]: > 50%
- Kp at 0.5 h [17]: 2.9
- QH (Rattus norvegicus [18]): 83%
- concentration at 0.5 h [19]: 0.7 µM
- inhibition (INH) (Cytochrome P450 2C19): Not Active
- EC50 [20]: 1 µM
- Emax [2]: 106%
- Papp A→B [21]: 41.9 ×10⁻⁶ cm/s
- fraction unbound [22]: 0.1
- QH (Homo sapiens): 83%
- bioavailability [23]: 51%
- MRT [24]: 36 min
- EC50 [25]: > 10 µM
- Activity [26]: > 50%
- inhibition (INH) (Cytochrome P450 2C9): Not Active

Structure (SMILES): Cc1cccc(/C=C/c2ccnc(N)n2)c1
- EC50 [1]: > 30 µM

Structure (SMILES): CCOC(=O)C(=O)Nc1nccc(/C=C/c2ccccc2)n1
- EC50 [1]: 5 µM
- Emax [2]: 82%

Structure (SMILES): N#Cc1ccccc1/C=C/c1ccnc(N)n1
- EC50 [1]: > 30 µM

Structure (SMILES): N#Cc1cccc(/C=C/c2ccnc(N)n2)c1
- EC50 [1]: > 30 µM

Structure (SMILES): Nc1nc(O)cc(/C=C/c2ccccc2)n1
- EC50 [1]: > 30 µM

Structure (SMILES): CNc1nccc(/C=C/c2ccccc2)n1
- EC50 [1]: > 30 µM

Structure (SMILES): Nc1nccc(/C=C/c2ccccc2F)n1
- EC50 [1]: 2.9 µM
- Emax [2]: 101%
